From US8927717B1, “Thiochromeno[2,3-c]quinolin-12-one derivatives, preparation method and application thereof” (National Defense Medical Center, priority 2014, dated 2015)

Key:
Assay type in all cases: cell-based
[1] = system: SK-MEL-28
[2] = system: SK-MEL-5
[3] = system: UACC-62
[4] = system: OVCAR-5
[5] = system: OVCAR-8
[6] = system: NCI/ADR-RES
[7] = system: 786-0
[8] = system: ACHN
[9] = system: RXF 393
[10] = system: SN12C
[11] = system: TK-10
[12] = system: UO-31
[13] = system: PC-3
[14] = system: DU-145
[15] = system: MCF7
[16] = system: MDA-MB-231/ATCC
[17] = system: HS 578T
[18] = system: T-47D; details: Breast cancer; 10^−5 molar; 48 hours; SRB
[19] = system: MDA-MB-486
[20] = system: 60 cancer cell lines; test: NCI 60-cell screen, SRB, whole panel (mean, delta, range)
[21] = Melanoma, 10^−5 molar, 48 hours, SRB
[22] = Ovarian cancer, 10^−5 molar, 48 hours, SRB
[23] = Renal cancer, 10^−5 molar, 48 hours, SRB
[24] = Prostate cancer, 10^−5 molar, 48 hours, SRB
[25] = Breast cancer, 10^−5 molar, 48 hours, SRB

## CCNc1nc2ccccc2c2c(=O)c3cc(Cl)ccc3sc12 [Compound N2, 10-Chloro-6-ethylamino-12H-thiochromeno[2,3-c]quinolin-12-one]
[1]; [21]
  Growth percent SK-MEL-28: 93.07%
[1]; SK-MEL-28, five dose
  TGI: >100 µM
[2]; Homo sapiens, SK-MEL-5, five dose
  LC50: > 100 µM
[2]; [21]
  Growth percent SK-MEL-5: 73.99%
[2]; SK-MEL-5, five dose
  TGI: >100 µM
[3]; Homo sapiens, UACC-62, five dose
  GI50: 22.3 µM
[3]; Homo sapiens, UACC-62, five dose, read-out: LC50 (the source's name)
  CC50: > 100 µM
[3]; [21]
  Growth percent UACC-62: 69.06%
[3]; UACC-62, five dose
  TGI: >100 µM
[4]; Homo sapiens, OVCAR-5, five dose
  GI50: > 100 µM
[4]; Homo sapiens, OVCAR-5, five dose, read-out: LC50 (the source's name)
  CC50: > 100 µM
[4]; OVCAR-5, five dose
  TGI: >100 µM
[4]; [22]
  Growth percent OVCAR-5: 92.93%
[5]; Homo sapiens, OVCAR-8, five dose
  GI50: 17.7 µM
[5]; Homo sapiens, OVCAR-8, five dose, read-out: LC50 (the source's name)
  CC50: > 100 µM
[5]; OVCAR-8, five dose
  TGI: >100 µM
[5]; [22]
  Growth percent OVCAR-8: 62.54%
[6]; Homo sapiens, NCI/ADR-RES, five dose
  GI50: 33.5 µM
[6]; Homo sapiens, NCI/ADR-RES, five dose, read-out: LC50 (the source's name)
  CC50: > 100 µM
[6]; NCI/ADR-RES, five dose
  TGI: >100 µM
[6]; [22]
  Growth percent NCI/ADR-RES: 88.61%
[7]; 786-0, five dose
  TGI: 33.8 µM
[7]; Homo sapiens, 786-0, five dose
  GI50: 10.5 µM
[7]; Homo sapiens, 786-0, five dose, read-out: LC50 (the source's name)
  CC50: > 100 µM
[7]; [23]
  Growth percent 786-0: 23.87%
[8]; ACHN, five dose
  TGI: >100 µM
[8]; Homo sapiens, ACHN, five dose
  GI50: 8.66 µM
[8]; Homo sapiens, ACHN, five dose, read-out: LC50 (the source's name)
  CC50: > 100 µM
[8]; [23]
  Growth percent ACHN: 43.77%
[9]; Homo sapiens, RXF 393, five dose
  GI50: 13.1 µM
[9]; Homo sapiens, RXF 393, five dose, read-out: LC50 (the source's name)
  CC50: > 100 µM
[9]; RXF 393, five dose
  TGI: 44.6 µM
[9]; [23]
  Growth percent RXF 393: 34.56%
[10]; Homo sapiens, SN12C, five dose
  GI50: 75.3 µM
[10]; Homo sapiens, SN12C, five dose, read-out: LC50 (the source's name)
  CC50: > 100 µM
[10]; [23]
  Growth percent SN12C: 84.57%
[10]; SN12C, five dose
  TGI: >100 µM
[11]; Homo sapiens, TK-10, five dose, read-out: LC50 (the source's name)
  CC50: > 100 µM
[11]; [23]
  Growth percent TK-10: 47.11%
[12]; Homo sapiens, UO-31, five dose
  GI50: 29.4 µM
[12]; Homo sapiens, UO-31, five dose, read-out: LC50 (the source's name)
  CC50: > 100 µM
[12]; [23]
  Growth percent UO-31: 32.06%
[12]; UO-31, five dose
  TGI: >100 µM
[13]; Homo sapiens, PC-3, five dose
  GI50: > 100 µM
[13]; Homo sapiens, PC-3, five dose, read-out: LC50 (the source's name)
  CC50: > 100 µM
[13]; PC-3, five dose
  TGI: >100 µM
[13]; [24]
  Growth percent PC-3: 77.80%
[14]; DU-145, five dose
  TGI: >100 µM
[14]; Homo sapiens, DU-145, five dose
  GI50: > 100 µM
[14]; Homo sapiens, DU-145, five dose, read-out: LC50 (the source's name)
  CC50: > 100 µM
[14]; [24]
  Growth percent DU-145: 87.67%
[15]; [25]
  Growth percent MCF7 (Table 2: MCF): 17.54%
[15]; Homo sapiens, MCF7, five dose, read-out: LC50 (the source's name)
  CC50: > 100 µM
[15]; MCF7, five dose
  TGI: >100 µM
[16]; [25]
  Growth percent MDA-MB-231/ATCC: 48.66%
[16]; Homo sapiens, MDA-MB-231/ATCC, five dose
  GI50: 10.1 µM
[16]; Homo sapiens, MDA-MB-231/ATCC, five dose, read-out: LC50 (the source's name)
  CC50: > 100 µM
[16]; MDA-MB-231/ATCC, five dose
  TGI: 65.5 µM
[17]; [25]
  Growth percent HS 578T: 36.37%
[17]; HS 578T, five dose
  TGI: 65.5 µM
[17]; Homo sapiens, HS 578T, five dose
  GI50: 9.64 µM
[17]; Homo sapiens, HS 578T, five dose, read-out: LC50 (the source's name)
  CC50: > 100 µM
[18]
  Growth percent T-47D: 38.28%
[19]; 60 cell, MDA-MB-486, five dose
  GI50: 0.04 µM
[19]; 60 cell, MDA-MB-486, five dose, read-out: LC50 (the source's name)
  CC50: > 100 µM
[19]; [25]
  Growth percent MDA-MB-486: 26.29%
[19]; MDA-MB-486, five dose
  TGI: >100 µM
[20]; 60 cell, mean over panel, five dose
  GI50: 28.8 µM
[20]; 60 cell, mean over panel, five dose, read-out: LC50, Mean
  CC50: 100 µM
[20]; delta over the cell panel, 10^−5 molar, 48 hours, SRB
  Growth percent, Delta: 66.04%
[20]; mean over panel, five dose
  TGI, Mean: 83.18 µM
[20]; mean over the cell panel, 10^−5 molar, 48 hours, SRB
  Growth percent, Mean: 65.97%
[20]; range over the cell panel, 10^−5 molar, 48 hours, SRB
  Growth percent, Range: 103.40%
